Literature values, collected in patent US9861647B2 (Prelief Inc., priority 2007, dated 2018).
Where two headings read alike, the source gives them in different places.

Test system: ragweed sensitized Beagle dogs
Conditions: Rudolph et al., 2003, cited from earlier work

Compound	RW-induced nasal congestion (chlorpheniramine 10 mg/kg)	RW-induced nasal congestion (pseudoephedrine 3 mg/kg)
CN(C)CCC(c1ccc(Cl)cc1)c1ccccn1 (centres unmarked) [chlorpheniramine]	can prevent the development of RW-induced nasal congestion	
CN[C@@H](C)[C@@H](O)c1ccccc1 [pseudoephedrine]		can prevent the development of RW-induced nasal congestion
